pIC50: −log10 of the molar value.
Experiments:
Assay type in all cases: cell-based
Caspase6 = biological target: T1, Caspase6 (Homo sapiens, UniProt P55212); assay: yeast 384 well β-galactosidase reporter assay, Caspase6; details: Caspase6 in yeast, 384 well β-galactosidase activity assay
T1 construct: each full-length Caspase construct was expressed (for Caspases-1, 2, 3, 4, 5, 6, 7, and 9) at high levels; HA (N); expressed in transfected cells; host or cells: Saccharomyces cerevisiae (EGY48)
T1 sequence (P55212 1-293): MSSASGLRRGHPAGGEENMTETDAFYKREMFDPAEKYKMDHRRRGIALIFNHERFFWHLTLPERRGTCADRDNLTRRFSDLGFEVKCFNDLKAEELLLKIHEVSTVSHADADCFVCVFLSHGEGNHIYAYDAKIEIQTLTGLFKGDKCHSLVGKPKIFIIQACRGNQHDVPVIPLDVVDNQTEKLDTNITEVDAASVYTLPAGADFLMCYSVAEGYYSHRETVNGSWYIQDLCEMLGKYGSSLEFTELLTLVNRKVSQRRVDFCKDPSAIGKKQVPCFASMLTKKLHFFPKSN
Source text: (§1) When converting the yeast-based protease reporter system to HTS assay, conditions from agar plates to liquid medium in microtiter wells must be revised. This revision comprises, utilizing the measured β-galactosidase produced by yeast carrying the Caspase-cleavable reporter proteins, and assaying the colorimetric product (OD620nm) derived from X-gal substrate in 384 well plates, as a measure of the lacZ reporter gene activity. We compared β-galactosidase activity produced in the presence or absence of the broad-spectrum caspase inhibitory compound, zVAD-fmk ([…]-Valinyl-Alaninyl-Aspartyl-fluoromethylketone). […] Note that it was determined that it is not advisible to employ glucose in yeast media because it represses the GAL1 promoter used in some plasmids. […]
(§2) Yeast expressing various Caspases alone (at high levels) or in combination with upstream activators (at low levels) and cleavable substrates containing appropriate tetrapeptides reorganized by these proteases were used in 384 well β-galactosidase activity assays to assess inhibition by zVAD-fmk. The compound was titrated into assays at various concentrations and percentage inhibition was determined.
(§3) Assays were performed in a total volume of […] in triplicate. […] Absorbance at 620 nm was measured 2-3 days after culture at 30° C.

[1] = biological target: T2, Caspase1 activated with Asc (Homo sapiens, UniProt P29466); assay: yeast 384 well β-galactosidase reporter assay, Caspase1 activated with Asc; details: Caspase1 activated with Asc in yeast, 384 well β-galactosidase activity assay
T2 construct: Caspase (all full-length zymogen proforms) expression plasmids; FLAG (C); expressed in transfected cells; host or cells: Saccharomyces cerevisiae (EGY191 or EGY48)
T2 sequence (P29466 120-297 limits assumed): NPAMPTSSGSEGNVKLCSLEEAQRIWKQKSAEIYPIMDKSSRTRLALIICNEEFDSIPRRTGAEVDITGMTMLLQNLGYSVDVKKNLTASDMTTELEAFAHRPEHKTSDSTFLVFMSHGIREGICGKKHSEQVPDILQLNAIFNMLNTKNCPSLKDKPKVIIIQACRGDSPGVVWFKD
T2 sequence (P29466 317-404 limits assumed): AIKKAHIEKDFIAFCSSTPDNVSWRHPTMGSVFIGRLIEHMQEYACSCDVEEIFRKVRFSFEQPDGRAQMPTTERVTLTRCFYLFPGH
Source text: as §1, §2, §3

Caspase7 = biological target: T3, Caspase7 (Homo sapiens, UniProt P55210); assay: yeast 384 well β-galactosidase reporter assay, Caspase7; details: Caspase7 in yeast, 384 well β-galactosidase activity assay
T3 construct: each full-length Caspase construct was expressed (for Caspases-1, 2, 3, 4, 5, 6, 7, and 9) at high levels; expressed in transfected cells; host or cells: Saccharomyces cerevisiae (EGY48)
T3 sequence (P55210 1-303): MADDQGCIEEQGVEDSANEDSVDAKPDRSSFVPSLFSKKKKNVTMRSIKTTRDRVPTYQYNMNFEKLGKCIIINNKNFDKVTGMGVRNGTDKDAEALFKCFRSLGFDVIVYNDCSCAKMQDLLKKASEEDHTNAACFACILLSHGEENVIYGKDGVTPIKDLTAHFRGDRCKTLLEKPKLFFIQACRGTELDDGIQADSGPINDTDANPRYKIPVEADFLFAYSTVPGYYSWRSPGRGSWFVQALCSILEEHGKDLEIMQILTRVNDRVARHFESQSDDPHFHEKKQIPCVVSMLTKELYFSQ
Source text: as §1, §2, §3

[2] = biological target: T4, Caspase10 activated with FADD (Homo sapiens, UniProt Q92851); assay: yeast 384 well β-galactosidase reporter assay, Caspase10 activated with FADD; details: Caspase10 activated with FADD in yeast, 384 well β-galactosidase activity assay
T4 construct: a small amount of each full-length Caspase construct was expressed with a large amount of adaptor protein FADD; FLAG (C); expressed in transfected cells; host or cells: Saccharomyces cerevisiae EGY48
T4 sequence (Q92851 1-479 isoform Q92851-2): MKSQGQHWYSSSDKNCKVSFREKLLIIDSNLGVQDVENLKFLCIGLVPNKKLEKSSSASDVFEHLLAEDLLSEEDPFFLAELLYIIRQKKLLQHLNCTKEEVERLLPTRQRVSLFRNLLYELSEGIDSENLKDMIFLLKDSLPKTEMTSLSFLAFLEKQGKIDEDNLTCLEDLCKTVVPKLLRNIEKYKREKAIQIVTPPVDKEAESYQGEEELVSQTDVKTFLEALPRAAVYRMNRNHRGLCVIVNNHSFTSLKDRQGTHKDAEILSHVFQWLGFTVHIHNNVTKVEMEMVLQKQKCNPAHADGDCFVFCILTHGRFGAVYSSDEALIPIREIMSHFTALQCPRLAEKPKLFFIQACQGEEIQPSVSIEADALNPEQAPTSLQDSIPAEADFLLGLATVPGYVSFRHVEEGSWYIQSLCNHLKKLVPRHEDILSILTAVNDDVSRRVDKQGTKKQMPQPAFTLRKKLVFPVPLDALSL
Source text: as §1, §2, §3

[3] = biological target: T5, Caspase8 activated with FADD + Fas (Homo sapiens, UniProt Q14790); assay: yeast 384 well β-galactosidase reporter assay, Caspase8 activated with FADD + Fas; details: Caspase8 activated with FADD + Fas in yeast, 384 well β-galactosidase activity assay
T5 construct: a small amount of each full-length Caspase construct was expressed with a large amount of adaptor protein FADD; HA (C); expressed in transfected cells; host or cells: Saccharomyces cerevisiae EGY48
T5 sequence (Q14790 217-374 limits assumed): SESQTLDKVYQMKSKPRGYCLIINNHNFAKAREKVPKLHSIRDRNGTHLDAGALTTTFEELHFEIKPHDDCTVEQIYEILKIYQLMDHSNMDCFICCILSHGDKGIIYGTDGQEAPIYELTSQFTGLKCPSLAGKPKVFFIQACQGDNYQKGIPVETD
T5 sequence (Q14790 385-479 limits assumed): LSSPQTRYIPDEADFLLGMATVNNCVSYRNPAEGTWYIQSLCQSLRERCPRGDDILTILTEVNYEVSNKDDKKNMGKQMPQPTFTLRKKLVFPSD
Source text: as §1, §2, §3

Substance: benzoyl-Valinyl-Alaninyl-Aspartyl-fluoromethylketone [zVAD-fmk]
- pIC50 (Caspase6): 5.17
- pIC50 [1]: 6.00
- pIC50 (Caspase7): 5.39
- pIC50 [2]: 5.02
- pIC50 [3]: 5.27

From US20100028892A1, “YEAST BASED EXPRESSION OF PROTEASES AND METHODS OF USE” (Burnham Institute for Medical Research, priority 2008, published 2010)
